{
  "source": "patent US20040266718A1",
  "about": "“Inhibition of specific histone deacetylase isoforms” (priority 2001, published 2004)",
  "key": {"human HDAC-1": {"molecular_target": "T1, human HDAC-1 (Homo sapiens, UniProt Q13547)", "T1 construct": "made in house; host or cells: insect cells (baculovirus expression system)", "T1 sequence (Q13547 whole entry)": "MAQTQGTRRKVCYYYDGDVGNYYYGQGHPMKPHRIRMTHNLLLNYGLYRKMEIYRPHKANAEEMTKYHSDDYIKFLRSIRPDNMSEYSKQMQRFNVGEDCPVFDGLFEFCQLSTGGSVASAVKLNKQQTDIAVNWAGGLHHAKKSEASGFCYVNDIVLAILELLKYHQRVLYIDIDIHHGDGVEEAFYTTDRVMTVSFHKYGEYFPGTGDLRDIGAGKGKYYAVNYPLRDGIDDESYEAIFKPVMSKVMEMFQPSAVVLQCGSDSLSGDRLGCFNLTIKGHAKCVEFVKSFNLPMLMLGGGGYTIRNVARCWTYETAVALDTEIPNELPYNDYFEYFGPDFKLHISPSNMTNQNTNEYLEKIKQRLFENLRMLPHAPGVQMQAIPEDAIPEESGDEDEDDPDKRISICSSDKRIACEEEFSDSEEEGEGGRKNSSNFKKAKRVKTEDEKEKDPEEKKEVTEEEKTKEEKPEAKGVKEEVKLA", "experiment": "histone deacetylase enzyme assay, HDAC-1", "type": "biochemical", "details": "recombinant human enzyme, [3H]-acetylated histone substrate, 10 minutes; read-out: Enzyme IC50 (μM) HDAC1", "method": "(§1) The other HDAC isotypes, HDAC-3 and HDAC-4, were purified directly on an anti-Flag affinity column.\n(§2) For the deacetylase assay, 20,000 cpm of an [^3H]-metabolically-labeled acetylated histone was used as a substrate. Histones were incubated with cloned recombinant human HDAC enzymes at 37° C. […] All assay conditions were pre-determined to be certain that each reaction was linear. Reactions were stopped by adding acetic acid (0.04 M, final concentration) and HCl (250 mM, final concentration). The mixture was extracted with ethyl acetate, and the released [^3H]-acetic acid was quantified by liquid scintillation counting. For the inhibition studies, HDAC enzyme was preincubated with test compounds for 30 minutes at 4° C. prior to the start of the enzymatic assay. IC50 values for HDAC enzyme inhibitors were identified with dose response curves for each individual compound and, thereby, obtaining a value for the concentration of inhibitor that produced fifty percent of the maximal inhibition."}, "human HDAC-3": {"molecular_target": "T2, human HDAC-3 (Homo sapiens, UniProt O15379)", "T2 construct": "made in house; host or cells: insect cells (baculovirus expression system)", "T2 sequence (O15379 whole entry)": "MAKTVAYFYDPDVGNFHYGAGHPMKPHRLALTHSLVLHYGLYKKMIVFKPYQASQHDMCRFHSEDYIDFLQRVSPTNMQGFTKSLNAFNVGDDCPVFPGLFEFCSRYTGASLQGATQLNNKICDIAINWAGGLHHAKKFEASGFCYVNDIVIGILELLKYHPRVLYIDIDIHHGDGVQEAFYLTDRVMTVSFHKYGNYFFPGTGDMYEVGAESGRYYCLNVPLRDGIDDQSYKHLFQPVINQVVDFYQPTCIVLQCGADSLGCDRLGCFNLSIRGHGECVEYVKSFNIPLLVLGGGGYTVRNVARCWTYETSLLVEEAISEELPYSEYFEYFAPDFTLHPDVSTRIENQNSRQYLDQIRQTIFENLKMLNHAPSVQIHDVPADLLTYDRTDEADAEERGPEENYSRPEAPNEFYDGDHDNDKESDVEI", "experiment": "histone deacetylase enzyme assay, HDAC-3", "type": "biochemical", "details": "recombinant human enzyme, [3H]-acetylated histone substrate, 2 hours; read-out: Enzyme IC50 (μM) HDAC3", "method": "as §1, §2"}, "human HDAC-4": {"molecular_target": "T3, human HDAC-4 (Homo sapiens, UniProt P56524)", "T3 construct": "Flag; made in house", "T3 sequence (P56524 whole entry)": "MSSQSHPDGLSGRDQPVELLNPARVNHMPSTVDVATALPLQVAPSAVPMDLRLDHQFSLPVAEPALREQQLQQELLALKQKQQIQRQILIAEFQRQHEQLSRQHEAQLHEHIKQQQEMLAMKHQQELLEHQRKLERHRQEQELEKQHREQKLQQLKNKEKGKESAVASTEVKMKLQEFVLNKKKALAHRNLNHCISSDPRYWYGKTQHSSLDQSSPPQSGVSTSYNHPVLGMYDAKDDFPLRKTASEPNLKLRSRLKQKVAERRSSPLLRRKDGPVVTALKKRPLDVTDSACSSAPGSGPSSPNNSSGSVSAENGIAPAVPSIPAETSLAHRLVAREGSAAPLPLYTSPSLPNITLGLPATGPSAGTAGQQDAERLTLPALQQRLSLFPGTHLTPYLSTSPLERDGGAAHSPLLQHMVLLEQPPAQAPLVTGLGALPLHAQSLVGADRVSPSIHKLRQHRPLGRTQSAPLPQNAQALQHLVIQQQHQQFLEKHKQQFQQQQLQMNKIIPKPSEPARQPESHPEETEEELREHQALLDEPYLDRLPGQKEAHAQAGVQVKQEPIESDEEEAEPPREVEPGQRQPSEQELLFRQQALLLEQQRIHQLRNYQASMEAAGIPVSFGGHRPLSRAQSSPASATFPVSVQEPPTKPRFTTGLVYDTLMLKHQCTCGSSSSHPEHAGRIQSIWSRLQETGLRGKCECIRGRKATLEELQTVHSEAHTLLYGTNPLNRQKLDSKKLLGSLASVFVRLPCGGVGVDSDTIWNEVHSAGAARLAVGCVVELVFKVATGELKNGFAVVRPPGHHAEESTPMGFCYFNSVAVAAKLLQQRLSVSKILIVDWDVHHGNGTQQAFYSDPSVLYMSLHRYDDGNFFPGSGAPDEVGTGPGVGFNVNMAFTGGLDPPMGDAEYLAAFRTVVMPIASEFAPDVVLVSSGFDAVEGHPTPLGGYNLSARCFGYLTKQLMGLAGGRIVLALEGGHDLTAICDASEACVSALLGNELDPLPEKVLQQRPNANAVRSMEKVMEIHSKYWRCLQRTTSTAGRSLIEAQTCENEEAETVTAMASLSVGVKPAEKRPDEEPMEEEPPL", "experiment": "histone deacetylase enzyme assay, HDAC-4", "type": "biochemical", "details": "recombinant human enzyme, [3H]-acetylated histone substrate, 2 hours; read-out: Enzyme IC50 (μM) HDAC4", "method": "Flag-tagged human HDAC-4 enzyme was produced in human embronic kidney 293 cells after transformation by the calcium phosphate precipitation method. Briefly, 293 cells were cultured in Dulbecco's Modified Eagle Medium (DMEM) containing 10% fetal bovine serum and antibiotics. Plasmid DNA encoding Flag-tagged human HDAC-4 was precipitated by ethanol and resuspend in sterile water. DNA-calcium precipitates, formed by mixing DNA, calcium choloride and 2× HEPES-buffered saline solution, were left on 293 cells for 12-16 hours. Cells were return to serum-contained. DMEM medium and harvested at 48 hour post transfection for purification of Flag-tagged HDAC-4 enzyme.\nas §1\nFor the deacetylase assay, 20,000 cpm of an [^3H]-metabolically-labeled acetylated histone was used as a substrate. Histones were incubated with cloned recombinant human HDAC enzymes at 37° C. […] All assay conditions were pre-determined to be certain that each reaction was linear. Reactions were stopped by adding acetic acid (0.04 M, final concentration) and HCl (250 mM, final concentration). The mixture was extracted with ethyl acetate, and the released [^3H]-acetic acid was quantified by liquid scintillation counting. […]"}, "human HDAC-6": {"molecular_target": "T4, human HDAC-6 (Homo sapiens, UniProt Q9UBN7)", "T4 construct": "made in house; host or cells: insect cells (baculovirus expression system)", "T4 sequence (Q9UBN7 whole entry)": "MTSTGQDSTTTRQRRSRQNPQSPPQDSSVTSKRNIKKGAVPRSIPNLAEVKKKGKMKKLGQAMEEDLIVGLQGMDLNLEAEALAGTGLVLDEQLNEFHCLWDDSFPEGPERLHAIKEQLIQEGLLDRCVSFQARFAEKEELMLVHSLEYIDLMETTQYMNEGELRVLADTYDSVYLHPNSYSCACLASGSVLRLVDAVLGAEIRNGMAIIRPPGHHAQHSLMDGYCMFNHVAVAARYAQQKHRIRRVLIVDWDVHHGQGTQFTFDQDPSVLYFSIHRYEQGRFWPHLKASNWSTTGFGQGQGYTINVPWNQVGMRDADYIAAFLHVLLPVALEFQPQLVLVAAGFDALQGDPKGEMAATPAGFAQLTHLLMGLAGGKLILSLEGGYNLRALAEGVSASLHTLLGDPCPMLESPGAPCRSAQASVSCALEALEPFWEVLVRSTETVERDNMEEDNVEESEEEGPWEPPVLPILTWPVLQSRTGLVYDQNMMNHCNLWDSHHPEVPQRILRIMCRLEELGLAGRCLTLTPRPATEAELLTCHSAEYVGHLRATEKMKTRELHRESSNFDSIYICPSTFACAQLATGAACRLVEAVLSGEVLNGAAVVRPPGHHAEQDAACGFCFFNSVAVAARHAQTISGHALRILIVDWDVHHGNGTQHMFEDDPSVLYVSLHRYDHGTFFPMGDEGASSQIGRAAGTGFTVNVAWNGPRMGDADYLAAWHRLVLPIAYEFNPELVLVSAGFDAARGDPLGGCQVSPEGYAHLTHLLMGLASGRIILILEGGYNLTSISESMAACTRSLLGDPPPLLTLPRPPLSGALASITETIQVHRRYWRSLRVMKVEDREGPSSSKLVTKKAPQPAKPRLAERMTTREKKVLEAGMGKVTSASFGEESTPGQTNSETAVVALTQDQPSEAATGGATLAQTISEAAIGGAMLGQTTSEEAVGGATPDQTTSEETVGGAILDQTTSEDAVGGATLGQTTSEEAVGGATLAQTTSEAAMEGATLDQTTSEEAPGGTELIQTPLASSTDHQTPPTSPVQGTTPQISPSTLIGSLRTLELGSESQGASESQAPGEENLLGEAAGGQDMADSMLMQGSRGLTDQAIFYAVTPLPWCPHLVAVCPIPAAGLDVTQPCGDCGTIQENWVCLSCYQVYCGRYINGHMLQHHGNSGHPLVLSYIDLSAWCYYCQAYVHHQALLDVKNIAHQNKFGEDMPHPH", "experiment": "histone deacetylase enzyme assay, HDAC-6", "type": "biochemical", "details": "recombinant human enzyme, [3H]-acetylated histone substrate, 2 hours; read-out: Enzyme IC50 (μM) HDAC6", "method": "as §1, §2"}, "[1]": {"test_system": "acetylated histone H-4 in T24 human bladder cancer cells", "experiment": "inhibition of HDAC activity in whole cells (acetylated histone H-4 Western blot)", "type": "cell-based", "details": "16 hours", "method": "T24 human bladder cancer cells (ATCC, Manassas, Va.) growing in culture were incubated with test compounds for 16 hours. Histones were extracted from the cells by standard procedures (see e.g. Yoshida et al., supra) after the culture period. Twenty μg total core histone protein was loaded onto SDS/PAGE and transferred to nitrocellulose membranes, which were then reacted with polyclonal antibody specific for acetylated histone H-4 (Upstate Biotech Inc., Lake Placid, […].). Horse Radish Peroxidase conjugated secondary antibody was used at a dilution of 1:5000 to detect primary antibody binding. The secondary antibody binding was visualized by use of the Enhanced chemiluminescence (ECL) detection kit (Amersham-Pharmacia Biotech., Inc., Piscataway, N.J.). After exposure to film, acetylated H-4 signal was quantitated by densitometry."}, "[2]": {"test_system": "human colon cancer HCT116 cells", "experiment": "MTT assay of cell proliferation", "type": "cell-based", "details": "HCT-116, 72 hours", "method": "Two thousand (2,000) human colon cancer HCT116 cells (ATCC, Manassas, Va. were used in an MTT (3-[4,5-dimethylthiazol-2-yl]-2,5 diphenyl tetrazolium bromide) assay to quantitatively determine cell proliferation and cytotoxicity. Typically, HCT116 cells were plated into each well of the 96-well tissue culture plate and left overnight to attach to the plate. Compounds at various concentrations were added into the culture media (final DMSO concentration 1%) and incubated for 72 hours. MTT solution (obtained from Sigma as powder) was added and incubated with the cells for 4 hours at 37° C. in incubator with 5% CO2. During the incubation, viable cells convert MTT to a water-insoluble formazan dye. Solubilizing buffer (50% N,N-dimethylformamide, 20% SDS, pH 4.7) was added to cells and incubated for overnight at 37C in incubator with 5% CO2. Solubilized dye was quantitated by calorimetric reading at […] using a reference of […]. Optical density values were converted to cell number values by comparison to a standard growth curve for each cell line."}, "[3]": {"test_system": "Human cancer HCT116 cells", "experiment": "cell cycle arrest by FACS", "type": "cell-based", "details": "HCT116, 16 hours; concentration to induce a (G2+M)/S ratio of 2.5", "method": "Human cancer HCT116 cells were plated at 2×10^5 per 10-cm dish and were left to attach to the dish overnight in the incubator. Cells were treated with small molecule inhibitors at various concentrations (1 uM and 10 uM, typically, dissolved in DMSO) for 16 hours. Cells were harvested by trypsinization and washed once in 1×PBS (phosphate buffered saline). The cells were resuspended in about 200 ul 1×PBS and were fixed by slowly adding 1 ml 70% ethanol at −20° C. and were left at least overnight at −20° C. Fixed cells were centrifuged at low speed (1,000 rpm) for 5 minutes, and the cell pellets were washed again with 1×PBS. Nucleic acids from fixed cells were incubated in a staining solution (0.1% (w/v) glucose in 1×PBS containing 50 ug/ml propidium iodide) (Sigma-Aldridge, Mississauga, Ontario, CA) and RNase A (final 100 units/ml, (Sigma-Aldridge, Mississauga, Ontario, CA) for at least 30 minutes in the dark at 25° C. DNA content was measured by using a fluorescence-activated cell sorter (FACS) machine. Treatment of cells with all HDAC small molecule inhibitors in Table 2 results in a significant accumulation of cancer cell in G2/M phase of the cell cycle and concomitantly reduce the accumulation of cancer cells in S phase of the cell cycle. The ratio of cells in G2/M phase vs. cells in the S. phase was determined. […]"}, "[4]": {"test_system": "human colon cancer cells (HCT116)", "experiment": "tumor growth in mouse model, colon", "type": "in vivo, BALB/c nude mice", "details": "40 mg/kg body weight/day, po", "method": "(§3) Female BALB/c nude mice were obtained from Charles River Laboratories (Charles River, N.Y.) and used at age 8-10 weeks. Human prostate tumor cells (DU145, 2×10^6) or human colon cancer cells (HCT116; 2×10^6) or […] A549 2×106 were injected subcutaneously in the animal's flank and allowed to form solid tumors. Tumor fragments were serially passaged a minimum of three times, then approximately 30 mg tumor fragments were implanted subcutaneously through a small surgical incision under general anaesthesia. Small molecule inhibitor administration by intraperotineal or oral administration was initiated when the tumors reached a volume of 100 mm^3. For intraperotineal administration, small molecule inhibitors of HDAC (40-50 mg/kg body weight/day) were dissolved in 100% DMSO and administered daily intraperitoneally by injection. For oral administration, small molecule inhibitors of HDAC (40-50 mg/kg body weight/days) were dissolved in a solution containing 65% polyethylene glycol 400 (PEG 400 (Sigma-Aldridge, Mississauga, Ontario, CA, Catalogue No. P-3265), 5% ethanol, and 30% water. Tumor volumes were monitored twice weekly up to 20 days. Each experimental group contained at least 6-8 animals. Percentage inhibition was calculated using volume of tumor from vehicle-treated mice as controls."}, "A549 [5]": {"test_system": "A549", "experiment": "tumor growth in mouse model, lung", "type": "in vivo, BALB/c nude mice", "details": "50 mg/kg body weight/day, ip", "method": "as §3"}, "A549 [6]": {"test_system": "A549", "experiment": "apoptosis, Cell Death Detection ELISA, A549", "type": "cell-based, human", "details": "100 ng/ml", "method": "(§4) In order to determine the effect of HDAC OSDNs on cell growth and cell death through apoptosis, A549 or T24 cells, MDAmb231 cells, and HMEC cells (ATCC, Manassas, Va.) were treated with HDAC OSDNs as previously described.\n(§5) For the apoptosis study, cells were analyzed using the Cell Death Detection ELISA^Plus kit (Roche Diagnostic GmBH, Mannheim, Germany) according to the manufacturer's directions. Typically, 10,000 cells were plated in 96-well tissue culture dishes for 2 hours before harvest and lysis. Each sample was analyzed in duplicate. ELISA reading was done using a MR700 plate reader (DYNEX Technology, Ashford, Middlesex, England) at 410 nm. The reference was set at 490 nm."}, "T24": {"test_system": "T24", "experiment": "apoptosis, Cell Death Detection ELISA, T24", "type": "cell-based, human", "details": "100 ng/ml", "method": "as §4, §5"}, "MDAmb231": {"test_system": "MDAmb231", "experiment": "apoptosis, Cell Death Detection ELISA, MDAmb231", "type": "cell-based, human", "details": "100 ng/ml", "method": "as §4, §5"}, "HMEC": {"test_system": "HMEC", "experiment": "apoptosis, Cell Death Detection ELISA, HMEC", "type": "cell-based, human", "details": "100 ng/ml, normal cells", "method": "as §4, §5"}, "[7]": {"test_system": "p21 mRNA expression in A549 cells", "experiment": "RNase protection assay, p21 in A549", "type": "cell-based, human", "details": "TSA vs lipofectin, 250 ng/ml, 16 hours", "procedure": "(§6) As a control, A549 cells were treated by lipofectin with or without TSA (250 ng/ml) treatment for 16 hours. These RNase protection assays were done according to the following procedure. Total RNA from cells was prepared using “RNeasy miniprep kit” from QIAGEN following the manufacturer's manual. Labeled probes used in the protection assays were synthesized using “hStress-1 multiple-probe template sets” from Pharmingen (San Diego, Calif., U.S.A.) according to the manufacturer's instructions. Protection procedures were performed using “RPA II™ Ribonuclease Protection Assay Kit” from Ambion, (Austin, Tex.) following the manufacturer's instructions. Quantitation of the bands from autoradiograms was done by using Cyclone™ Phosphor System (Packard Instruments Co. Inc., Meriden, Conn.)."}, "[8]": {"test_system": "GADD45 mRNA expression in A549 cells", "experiment": "RNase protection assay, GADD45 in A549", "type": "cell-based, human", "details": "TSA vs lipofectin, 250 ng/ml, 16 hours", "procedure": "as §6"}, "[9]": {"test_system": "Bax mRNA expression in A549 cells", "experiment": "RNase protection assay, Bax in A549", "type": "cell-based, human", "details": "TSA vs lipofectin, 250 ng/ml, 16 hours", "procedure": "as §6"}},
  "data": [
    {"compound": "Nc1ccccc1NC(=O)/C=C/C#Cc1cccc(NS(=O)(=O)c2ccccc2)c1", "note": "[Compound 2]", "values": [
      {"measurement": "IC50", "setting": "human HDAC-1", "value": 3, "unit": "µM"},
      {"measurement": "IC50", "setting": "human HDAC-3", "value": 30, "unit": "µM"},
      {"measurement": "IC50", "setting": "human HDAC-4", "value": 35, "unit": "µM"},
      {"measurement": "IC50", "setting": "human HDAC-6", "value": "> 30", "unit": "µM"},
      {"measurement": "H4-Ac", "setting": "[1]", "value": 5, "unit": "µM"},
      {"measurement": "EC50", "setting": "[2]", "value": 4, "unit": "µM"},
      {"measurement": "Cell Cycle Arrest EC", "setting": "[3]", "value": 8, "unit": "µM"},
      {"measurement": "% inhibitor of tumor formation in vivo, colon", "setting": "[4]", "value": 53, "unit": "%"},
      {"measurement": "% inhibitor of tumor formation in vivo, lung", "setting": "A549 [5]", "value": 54, "unit": "%"}
    ]},
    {"compound": "CC(/C=C/C(=O)NO)=C\\[C@@H](C)C(=O)c1ccc(N(C)C)cc1", "note": "[TSA, (R)-Trichostatin A, reference compound]", "values": [
      {"measurement": "Apoptosis After 48 Hour Treatment A549", "setting": "A549 [6]", "value": "++ (3-5X fold)"},
      {"measurement": "Apoptosis After 48 Hour Treatment T24", "setting": "T24", "value": "++ (3-5X fold)"},
      {"measurement": "Apoptosis After 48 Hour Treatment MDAmb231", "setting": "MDAmb231", "value": "++ (3-5X fold)"},
      {"measurement": "Apoptosis After 48 Hour Treatment HMEC", "setting": "HMEC", "value": "+ (2-3X fold)"},
      {"measurement": "fold induction of transcription, p21, A549", "setting": "[7]", "value": 2.8, "unit": "fold"},
      {"measurement": "fold induction of transcription, GADD45, A549", "setting": "[8]", "value": 0.6, "unit": "fold"},
      {"measurement": "fold induction of transcription, Bax, A549", "setting": "[9]", "value": 0.8, "unit": "fold"}
    ]}
  ]
}
